From patent US10988523B2, “Modified lipidated Relaxin B chain peptides and their therapeutic use” (Sanofi, priority 2018, dated 2021)
*1 amine or outer side, *2 acyl side, *3 side chain or, on linkers, in order; H or OH if unused. Where a SMILES comes first, the peptide text is derived from it. Side-chain parts run from the residue outwards. [ ]: non-standard residue; d: D form. The star is where a group is joined. X9 = CCCCCCCCCCCCCCCCCC(=O)N[C@@H](CCC(=O)N[C@@H](CCC(=O)N[C@@H](CCC(=O)NCCCC[C@H](NC(=O)COCC(=O)NCCCOCCOCCOCCCN*)C(N)=O)C(=O)O)C(=O)O)C(=O)O; PEG12 = NCCOCCOCCOCCOCCOCCOCCOCCOCCOCCOCCOCCOCCC(=O)O; γGlu = O=C(O)[C@H](CCC(=O)[*:2])N[*:1]; Stearoyl = CCCCCCCCCCCCCCCCCC(=O)*; Palmitoyl = CCCCCCCCCCCCCCCC(=O)*; Nle = CCCC[C@H](N)C(=O)O; AEEA = NCCOCCOCC(=O)O; Aib = CC(C)(N)C(=O)O

Target: T1, RXFP1 (Homo sapiens, UniProt Q9HBX9)
T1 construct: OVCAR5 cells expressing endogenous RXFP1; endogenous in cells; host or cells: OVCAR5 cells
T1 sequence (Q9HBX9 1-757): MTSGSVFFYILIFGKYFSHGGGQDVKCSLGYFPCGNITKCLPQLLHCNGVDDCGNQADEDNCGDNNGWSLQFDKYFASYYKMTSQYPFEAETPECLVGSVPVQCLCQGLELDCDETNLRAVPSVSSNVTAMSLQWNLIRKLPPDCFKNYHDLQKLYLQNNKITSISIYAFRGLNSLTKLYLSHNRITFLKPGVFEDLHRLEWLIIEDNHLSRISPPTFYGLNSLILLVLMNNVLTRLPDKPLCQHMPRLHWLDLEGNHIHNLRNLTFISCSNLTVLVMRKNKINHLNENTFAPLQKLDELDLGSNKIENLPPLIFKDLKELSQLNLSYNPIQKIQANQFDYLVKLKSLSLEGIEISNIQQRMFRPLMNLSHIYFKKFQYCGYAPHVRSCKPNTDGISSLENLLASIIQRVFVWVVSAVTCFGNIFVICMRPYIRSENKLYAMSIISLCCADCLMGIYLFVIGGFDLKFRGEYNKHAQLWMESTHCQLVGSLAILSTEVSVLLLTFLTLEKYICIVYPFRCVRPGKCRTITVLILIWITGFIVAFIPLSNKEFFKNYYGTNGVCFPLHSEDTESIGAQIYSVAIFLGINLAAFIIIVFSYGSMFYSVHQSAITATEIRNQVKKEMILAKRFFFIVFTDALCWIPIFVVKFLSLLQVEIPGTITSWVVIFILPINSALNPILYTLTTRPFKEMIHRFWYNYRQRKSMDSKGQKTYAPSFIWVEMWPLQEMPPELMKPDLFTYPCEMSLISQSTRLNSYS
Assay: OVCAR5 cAMP assay (HTRF), RXFP1 agonist activity
Format: cell-based
Details: for Emax: OVCAR-5, maximal cAMP relative to H2-relaxin maximum (100%), read-out: EMax, OVCAR 5 cells (cAMP); for EC50: OVCAR5 cells, cAMP HTRF, read-out: EC50 (nM), OVCAR 5 cells (cAMP)
From the text: OVCAR5 cells expressing endogenous RXFP1 were used to test RXP1 agonist properties of peptides of the invention, and in particular of the peptides of sequence SEQ ID NO: 1-193.
Since RXFP1 is a Gs coupled GPCR, cAMP was used as readout of RXFP1 activation.
Isobutyl Methyl Xanthine (IBMX) was used to inhibit phosphodiesterase activity facilitating cAMP measurements. HTRF (Homogenous Time Resolved Fluorescence) technology was used to detect cAMP due to its great sensitivity.
In summary, OVCAR5 were grown in regular medium (RPMI) containing 10% fetal calf serum (FCS) and 1% antibiotics (penicillin/streptomycin).
Before the experiments, cells were detached with accutase and incubated for 40 minutes at 37° C. with 1 mM (3-isobutyl-1-methylxanthine) IBMX.
Cells were then distributed in 384 black well plates containing increasing concentrations of the different peptides in a fix volume of medium (without FCS).
After an incubation of 30 min at 37° C. in an humid incubator in 5% CO2, the reaction was stopped by adding a fixed volume of a solution containing a lysis buffer and cAMP-D2 (cAMP labeled with the dye d2) and the anti cAMP antibody linked to Europium and used for cAMP detection.
Readout of the experiment were performed on a fluorimeter allowing HTRF measurement. Activation curves were generated by plotting the intracellular value of cAMP versus log 10 of the compound concentration.
The 50% activation concentration (EC50) was calculated by nonlinear regression using the sigmoidal dose-response (variable slope) equation with Prism 5 software.
Emax % is determined as the maximal intracellular value of cAMP for test compound (upper limit of cAMP vs concentration curve) divided by the maximal intracellular value of cAMP for H2-relaxin determined in the same test occasion multiplied by 100. Emax %=100×[cAMPtest cpd]/[cAMPH2-RlX]

SMILES	Emax	EC50
CCCCCCCCCCCCCCCC(=O)N[C@@H](CCC(=O)N[C@@H](CCC(=O)N[C@@H](CCC(=O)NCCCC[C@H](NC(=O)COCCOCCNC(=O)COCCOCCNC(=O)[C@H](CCCCN)NC(=O)[C@H](CCCNC(=N)N)NC(=O)C(C)(C)NC(=O)[C@H](CO)NC(=O)[C@H](Cc1c[nH]c2ccccc12)NC(=O)[C@@H](NC(=O)[C@H](CO)NC(=O)[C@H](CCCC)NC(=O)CNC(=O)[C@H](CCC(=O)O)NC(=O)C(C)(C)NC(=O)C(C)(C)NC(=O)[C@@H](NC(=O)[C@H](CCC(N)=O)NC(=O)[C@H](C)NC(=O)[C@H](CCCNC(=N)N)NC(=O)[C@@H](NC(=O)[C@H](CCCCN)NC(=O)[C@H](CCC(=O)O)NC(=O)[C@H](CCCNC(=N)N)NC(=O)CNC(=O)[C@H](CCC(=O)O)NC(=O)[C@H](CC(C)C)NC(C)=O)C(C)C)[C@@H](C)CC)[C@@H](C)O)C(N)=O)C(=O)O)C(=O)O)C(=O)O [compound 11] (Ac-LEGREKVRAQI[Aib][Aib]EG[Nle]STWS[Aib]RK[AEEA][AEEA]K([γGlu-γGlu-γGlu-Palmitoyl])-NH2)	89%	–
CCCCCCCCCCCCCCCC(=O)N[C@@H](CCC(=O)N[C@@H](CCC(=O)N[C@@H](CCC(=O)NCCOCCOCC(=O)NCCCC[C@H](NC(=O)COCCOCCNC(=O)[C@H](CCCCN)NC(=O)[C@H](CCCNC(=N)N)NC(=O)C(C)(C)NC(=O)[C@H](CO)NC(=O)[C@H](Cc1c[nH]c2ccccc12)NC(=O)[C@@H](NC(=O)[C@H](CO)NC(=O)[C@H](CCCC)NC(=O)CNC(=O)[C@H](CCC(=O)O)NC(=O)C(C)(C)NC(=O)C(C)(C)NC(=O)[C@@H](NC(=O)[C@H](CCC(N)=O)NC(=O)[C@H](C)NC(=O)[C@H](CCCNC(=N)N)NC(=O)[C@@H](NC(=O)[C@H](CCCCN)NC(=O)[C@H](CCC(=O)O)NC(=O)[C@H](CCCNC(=N)N)NC(=O)CNC(=O)[C@H](CCC(=O)O)NC(=O)[C@H](CC(C)C)NC(C)=O)C(C)C)[C@@H](C)CC)[C@@H](C)O)C(N)=O)C(=O)O)C(=O)O)C(=O)O [compound 12] (Ac-LEGREKVRAQI[Aib][Aib]EG[Nle]STWS[Aib]RK[AEEA]K([AEEA-γGlu-γGlu-γGlu-Palmitoyl])-NH2)	76%	26.7 nM
CCCCCCCCCCCCCCCCCC(=O)N[C@@H](CCC(=O)N[C@@H](CCC(=O)N[C@@H](CCC(=O)N[C@@H](CCC(=O)NCCCC[C@H](NC(=O)COCCOCCNC(=O)COCCOCCNC(=O)COCCOCCNC(=O)COCCOCCNC(=O)[C@H](CCCCN)NC(=O)[C@H](CCCCN)NC(=O)[C@H](CCCNC(=N)N)NC(=O)C(C)(C)NC(=O)[C@H](CO)NC(=O)[C@H](Cc1c[nH]c2ccccc12)NC(=O)[C@@H](NC(=O)[C@H](CO)NC(=O)[C@H](CCCC)NC(=O)CNC(=O)[C@H](CCC(=O)O)NC(=O)C(C)(C)NC(=O)C(C)(C)NC(=O)[C@@H](NC(=O)[C@H](CCCCNC(C)=O)NC(=O)[C@H](C)NC(=O)[C@H](CCCNC(=N)N)NC(=O)[C@@H](NC(=O)[C@H](CCCCN)NC(=O)[C@H](CCC(=O)O)NC(=O)[C@H](CCCNC(=N)N)NC(=O)CNC(=O)[C@H](CCC(=O)O)NC(=O)[C@H](CC(C)C)NC(C)=O)C(C)C)[C@@H](C)CC)[C@@H](C)O)C(N)=O)C(=O)O)C(=O)O)C(=O)O)C(=O)O [compound 15] (Ac-LEGREKVRAK(Ac)I[Aib][Aib]EG[Nle]STWS[Aib]RKK[AEEA][AEEA][AEEA][AEEA]K([γGlu-γGlu-γGlu-γGlu-Stearoyl])-NH2)	92%	0.32 nM

Second part, the compound after the results:

Emax	EC50	SMILES
96%	–	CCCCCCCCCCCCCCCC(=O)N[C@@H](CCC(=O)N[C@@H](CCC(=O)N[C@@H](CCC(=O)NCCCC[C@H](NC(=O)COCCOCCNC(=O)[C@H](CCCCN)NC(=O)[C@H](CCCNC(=N)N)NC(=O)C(C)(C)NC(=O)[C@H](CO)NC(=O)[C@H](Cc1c[nH]c2ccccc12)NC(=O)[C@@H](NC(=O)[C@H](CO)NC(=O)[C@H](CCCC)NC(=O)CNC(=O)[C@H](CCC(=O)O)NC(=O)C(C)(C)NC(=O)C(C)(C)NC(=O)[C@@H](NC(=O)[C@H](CCC(N)=O)NC(=O)[C@H](C)NC(=O)[C@H](CCCNC(=N)N)NC(=O)[C@@H](NC(=O)[C@H](CCCCN)NC(=O)[C@H](CCC(=O)O)NC(=O)[C@H](CCCNC(=N)N)NC(=O)CNC(=O)[C@H](CCC(=O)O)NC(=O)[C@H](CC(C)C)NC(C)=O)C(C)C)[C@@H](C)CC)[C@@H](C)O)C(N)=O)C(=O)O)C(=O)O)C(=O)O [compound 10] (Ac-LEGREKVRAQI[Aib][Aib]EG[Nle]STWS[Aib]RK[AEEA]K([γGlu-γGlu-γGlu-Palmitoyl])-NH2)
81%	–	CCCCCCCCCCCCCCCC(=O)N[C@@H](CCC(=O)N[C@@H](CCC(=O)N[C@@H](CCC(=O)NCCOCCOCC(=O)NCCOCCOCC(=O)NCCCC[C@H](NC(=O)COCCOCCNC(=O)[C@H](CCCCN)NC(=O)[C@H](CCCNC(=N)N)NC(=O)C(C)(C)NC(=O)[C@H](CO)NC(=O)[C@H](Cc1c[nH]c2ccccc12)NC(=O)[C@@H](NC(=O)[C@H](CO)NC(=O)[C@H](CCCC)NC(=O)CNC(=O)[C@H](CCC(=O)O)NC(=O)C(C)(C)NC(=O)C(C)(C)NC(=O)[C@@H](NC(=O)[C@H](CCC(N)=O)NC(=O)[C@H](C)NC(=O)[C@H](CCCNC(=N)N)NC(=O)[C@@H](NC(=O)[C@H](CCCCN)NC(=O)[C@H](CCC(=O)O)NC(=O)[C@H](CCCNC(=N)N)NC(=O)CNC(=O)[C@H](CCC(=O)O)NC(=O)[C@H](CC(C)C)NC(C)=O)C(C)C)[C@@H](C)CC)[C@@H](C)O)C(N)=O)C(=O)O)C(=O)O)C(=O)O [compound 13] (Ac-LEGREKVRAQI[Aib][Aib]EG[Nle]STWS[Aib]RK[AEEA]K([AEEA-AEEA-γGlu-γGlu-γGlu-Palmitoyl])-NH2)
83%	0.41 nM	CCCCCCCCCCCCCCCCCC(=O)N[C@@H](CCC(=O)N[C@@H](CCC(=O)N[C@@H](CCC(=O)NCCCC[C@H](NC(=O)COCC(=O)NCCCOCCOCCOCCCNC(=O)[C@H](CCCCNC(C)=O)NC(=O)[C@H](CCCCN)NC(=O)[C@H](CCCNC(=N)N)NC(=O)C(C)(C)NC(=O)[C@H](CO)NC(=O)[C@H](Cc1c[nH]c2ccccc12)NC(=O)[C@@H](NC(=O)[C@H](CO)NC(=O)[C@H](CCCC)NC(=O)CNC(=O)[C@H](CCC(=O)O)NC(=O)C(C)(C)NC(=O)C(C)(C)NC(=O)[C@@H](NC(=O)[C@H](CCCCNC(C)=O)NC(=O)[C@H](C)NC(=O)[C@H](CCCNC(=N)N)NC(=O)[C@@H](NC(=O)[C@H](CCCCN)NC(=O)[C@H](CCC(=O)O)NC(=O)[C@H](CCCNC(=N)N)NC(=O)CNC(=O)[C@H](CCC(=O)O)NC(=O)[C@H](CC(C)C)NC(C)=O)C(C)C)[C@@H](C)CC)[C@@H](C)O)C(N)=O)C(=O)O)C(=O)O)C(=O)O [compound 18] (Ac-LEGREKVRAK(Ac)I[Aib][Aib]EG[Nle]STWS[Aib]RKK(Ac)-X9)
88%	–	CCCCCCCCCCCCCCCCCC(=O)NCCCC[C@H](NC(=O)CCOCCOCCOCCOCCOCCOCCOCCOCCOCCOCCOCCOCCNC(=O)[C@H](CCCCNC(C)=O)NC(=O)[C@H](CCCCN)NC(=O)[C@H](CCCNC(=N)N)NC(=O)C(C)(C)NC(=O)[C@H](CO)NC(=O)[C@H](Cc1c[nH]c2ccccc12)NC(=O)[C@@H](NC(=O)[C@H](CO)NC(=O)[C@H](CCCC)NC(=O)CNC(=O)[C@H](CCC(=O)O)NC(=O)C(C)(C)NC(=O)C(C)(C)NC(=O)[C@@H](NC(=O)[C@H](CCC(N)=O)NC(=O)[C@H](C)NC(=O)[C@H](CCCNC(=N)N)NC(=O)[C@@H](NC(=O)[C@H](CCCCN)NC(=O)[C@H](CCC(=O)O)NC(=O)[C@H](CCCNC(=N)N)NC(=O)CNC(=O)[C@H](CCC(=O)O)NC(=O)[C@H](CC(C)C)NC(C)=O)C(C)C)[C@@H](C)CC)[C@@H](C)O)C(N)=O [compound 21] (Ac-LEGREKVRAQI[Aib][Aib]EG[Nle]STWS[Aib]RKK(Ac)[PEG12]K(Stearoyl)-NH2)
